Consider 4 compounds from patent US20240074990A1 (priority 2022, published 2024).

The structures appear in SMILES notation. Where “and” joins values, the source holds several entries; their conditions need not be identical. Equal entries are not always repeated. Entries after “also recorded” stand apart in the source; their conditions may differ. Where two headings read alike, the source gives them in different places.

One test deals with SARS-CoV-2 3CL protease (Severe acute respiratory syndrome coronavirus 2, UniProt P0DTD1). Briefly: In-vitro enzyme activity inhibition test on SARS-CoV-2 3CL protease (fluorescence resonance energy transfer method). The test is classed as biochemical. The note with it: for inhibitory activity on SARS-CoV-2 3CL proteases (in words): statement in words.
Another test addresses SARS-CoV 3CL protease (Severe acute respiratory syndrome coronavirus, UniProt P0C6X7). Briefly: biochemical. The note with it: for IC50: FRET, three parallel tests; for inhibitory activity on SARS-CoV 3CL proteases (in words): statement in words.
Where [1] appears, read: 0.1 μM compound, parallel tests 1, 2, 3, 0.1 µM.
The mark [2] stands for this setting: 0.5 μM compound, parallel tests 1, 2, 3, 0.5 µM.
Where [3] appears, read: 1 μM compound, parallel tests 1, 2, 3, 1 µM.
Setting [4] is: 5 μM compound, parallel tests 1, 2, 3, 5 µM.
[5] abbreviates: 10 μM compound, parallel tests 1, 2, 3, 10 µM.
[6] abbreviates: 20 μM compound, parallel tests 1, 2, 3, 20 µM.
[7] abbreviates: 30 μM compound, parallel tests 1, 2, 3, 30 µM.
Setting [8] is: 50 μM compound, parallel tests 1, 2, 3, 50 µM.
The mark [9] stands for this setting: 100 μM compound, parallel tests 1, 2, 3, 100 µM.
Where [10] appears, read: IC50, SARS-CoV-2 3CL protease, FRET, three parallel tests.
Setting [11] is: read-out: inhibition percentage, 1 μM compound, parallel tests 1, 2, 3.
Where [12] appears, read: read-out: inhibition percentage, 5 μM compound, parallel tests 1, 2, 3.
The mark [13] stands for this setting: read-out: inhibition percentage, 10 μM compound, parallel tests 1, 2, 3.
[14] abbreviates: read-out: inhibition percentage, 20 μM compound, parallel tests 1, 2, 3.
The mark [15] stands for this setting: read-out: inhibition percentage, 30 μM compound, parallel tests 1, 2, 3.
Setting [16] is: read-out: inhibition percentage, 50 μM compound, parallel tests 1, 2, 3.
The mark [17] stands for this setting: read-out: inhibition percentage, 100 μM compound, parallel tests 1, 2, 3.

One may read the IC50 as the point on the concentration scale where inhibition reaches its midpoint. In general, inhibition refers to how much of the control response was suppressed.

As to `Cc1cc2c(C(C)C)c(O)c(O)c(C=O)c2c(O)c1-c1c(C)cc2c(C(C)C)c(O)c(O)c(C=O)c2c1O` (single isomer, unassigned) [(−)- gossypol, (−)-gossypol], the inhibition percentage against SARS-CoV-2 3CL protease (setting [1]) is 12.83 and 10.83 and 14.77; against SARS-CoV-2 3CL protease (setting [2]), 20.99 and 19.88 and 22.88; on SARS-CoV-2 3CL protease (setting [3]) it was 31.43 and 32.87 and 34.65; on SARS-CoV-2 3CL protease (setting [4]), 52.19 and 48.98 and 56.91; against SARS-CoV-2 3CL protease (setting [5]), 71.90 and 65.43 and 69.78; against SARS-CoV-2 3CL protease (setting [6]), 82.54 and 75.44 and 83.47. In addition, the inhibition percentage at SARS-CoV-2 3CL protease (setting [7]) was 90.45 and 83.21 and 91.45; at SARS-CoV-2 3CL protease (setting [8]), 96.88 and 90.68 and 95.87; against SARS-CoV-2 3CL protease (setting [9]) it was 99.23 and 96.73 and 98.44; against SARS-CoV 3CL protease (setting [1]), 13.11 and 10.83 and 15.87; on SARS-CoV 3CL protease (setting [2]), 24.54 and 21.88 and 30.26; on SARS-CoV 3CL protease (setting [3]), 43.78 and 40.92 and 50.01. The inhibition percentage was 64.32 and 58.9 and 67.22 against SARS-CoV 3CL protease (setting [4]); 77.32 and 72.54 and 73.76 on SARS-CoV 3CL protease (setting [5]); 86.43 and 78.13 and 85.43 on SARS-CoV 3CL protease (setting [6]); 91.83 and 87.54 and 90.32 on SARS-CoV 3CL protease (setting [7]); 98.42 and 92.10 and 97.54 at SARS-CoV 3CL protease (setting [8]); 99.74 and 98.12 and 99.53 against SARS-CoV 3CL protease (setting [9]). Besides, the IC50 was 2.97 ± 0.473 µM against SARS-CoV-2 3CL protease (IC50); under 10 µM on SARS-CoV-2 3CL protease (setting [10]); 1.79 µM and < 10 µM against SARS-CoV 3CL protease (IC50, SARS-CoV 3CL protease). In addition, on SARS-CoV-2 3CL protease, the “inhibitory activity on SARS-CoV-2 3CL proteases (in words)” value is listed as “all have inhibitory activity; also recorded: excellent inhibitory activity”. The “inhibitory activity on SARS-CoV 3CL proteases (in words)” value against SARS-CoV 3CL protease is recorded as “all have inhibitory activity; also recorded: excellent inhibitory activity”.
`Cc1cc2c(C(C)C)c(O)c(O)c(C=O)c2c(O)c1-c1c(C)cc2c(C(C)C)c(O)c(O)c(C=O)c2c1O` [Gossypol, gossypol]: the inhibition percentage against SARS-CoV-2 3CL protease (setting [3]) is 16.13 and 28.41; on SARS-CoV-2 3CL protease (setting [4]), 33.24 and 41.67; against SARS-CoV-2 3CL protease (setting [5]) it was 49.17 and 61.32; against SARS-CoV-2 3CL protease (setting [6]) it was 61.34 and 74.52; on SARS-CoV-2 3CL protease (setting [7]) it was 72.15 and 83.12; on SARS-CoV-2 3CL protease (setting [8]) it was 81.17 and 90.16. The inhibition percentage was 87.84 and 95.27 against SARS-CoV-2 3CL protease (setting [9]); 18.54 and 31.50 on SARS-CoV 3CL protease (setting [3]); 35.68 and 44.78 on SARS-CoV 3CL protease (setting [4]); 51.33 and 64.31 at SARS-CoV 3CL protease (setting [5]); 64.56 and 77.58 on SARS-CoV 3CL protease (setting [6]); 75.44 and 86.42 against SARS-CoV 3CL protease (setting [7]). The inhibition percentage on SARS-CoV 3CL protease (setting [8]) was 84.12 and 93.41; on SARS-CoV 3CL protease (setting [9]), 90.09 and 98.44. The IC50 against SARS-CoV-2 3CL protease (setting [10]) was found to be 6.91 ± 0.839 µM; on SARS-CoV 3CL protease (IC50, SARS-CoV 3CL protease) it was 5.43 ± 0.734 µM. In addition, the inhibition at 1 µM was 22.9% at SARS-CoV-2 3CL protease (setting [11]) and 25.6% at SARS-CoV 3CL protease (setting [11]). For the same compound, the results for the inhibition at 5 µM on SARS-CoV-2 3CL protease (setting [12]) and at SARS-CoV 3CL protease (setting [12]) were 36.2% and 40.4%, respectively. For the same compound, the results for the inhibition at 10 µM on SARS-CoV-2 3CL protease (setting [13]) and at SARS-CoV 3CL protease (setting [13]) were 57.4% and 61.2%, respectively. For the same compound, the inhibition at 20 µM turned out to be 71.2% on SARS-CoV-2 3CL protease (setting [14]) and 75% on SARS-CoV 3CL protease (setting [14]). The results for the inhibition at 30 µM at SARS-CoV-2 3CL protease (setting [15]) and on SARS-CoV 3CL protease (setting [15]) were 83.7% and 85.1%, respectively. Moreover, the inhibition at 50 µM stood at 88.4% on SARS-CoV-2 3CL protease (setting [16]) and 92.1% on SARS-CoV 3CL protease (setting [16]). The inhibition at 100 µM on SARS-CoV-2 3CL protease (setting [17]) came to 93.2%; at SARS-CoV 3CL protease (setting [17]), 96.3%. Besides, the “inhibitory activity on SARS-CoV-2 3CL proteases (in words)” value on SARS-CoV-2 3CL protease is reported as “all have inhibitory activity; also recorded: excellent inhibitory activity”. The “inhibitory activity on SARS-CoV 3CL proteases (in words)” value at SARS-CoV 3CL protease is given as “all have inhibitory activity; also recorded: excellent inhibitory activity”.
As to `CC(=O)O.Cc1cc2c(C(C)C)c(O)c(O)c(C=O)c2c(O)c1-c1c(C)cc2c(C(C)C)c(O)c(O)c(C=O)c2c1O` [Acetate gossypol, acetate gossypol], the inhibition percentage on SARS-CoV-2 3CL protease (setting [3]) was 24.71 and 17.94 and 30.17; against SARS-CoV-2 3CL protease (setting [4]), 37.81 and 34.61 and 43.51; on SARS-CoV-2 3CL protease (setting [5]), 59.14 and 50.87 and 63.21; on SARS-CoV-2 3CL protease (setting [6]) it was 72.87 and 63.41 and 76.32; against SARS-CoV-2 3CL protease (setting [7]), 85.31 and 73.94 and 84.81; on SARS-CoV-2 3CL protease (setting [8]), 90.17 and 82.76 and 91.83. Besides, the inhibition percentage is 95.41 and 89.67 and 97.16 at SARS-CoV-2 3CL protease (setting [9]); 26.61 and 19.97 and 32.84 against SARS-CoV 3CL protease (setting [3]); 41.15 and 36.26 and 45.91 against SARS-CoV 3CL protease (setting [4]); 62.48 and 52.56 and 65.81 against SARS-CoV 3CL protease (setting [5]); 75.14 and 65.81 and 78.97 against SARS-CoV 3CL protease (setting [6]); 86.61 and 76.15 and 87.62 at SARS-CoV 3CL protease (setting [7]). Moreover, the inhibition percentage was 93.52 and 85.63 and 94.62 against SARS-CoV 3CL protease (setting [8]); 97.81 and 91.32 and 98.71 against SARS-CoV 3CL protease (setting [9]). Besides, the IC50 on SARS-CoV-2 3CL protease (SARS-CoV-2 3CL protease, FRET, three parallel tests, read-out: IC50) came to 6.09 ± 0.784 µM; on SARS-CoV 3CL protease (SARS-CoV 3CL protease, read-out: IC50), 5.16 ± 0.712 µM. In addition, the “inhibitory activity on SARS-CoV-2 3CL proteases (in words)” value against SARS-CoV-2 3CL protease is “all have inhibitory activity; also recorded: excellent inhibitory activity”. Further, on SARS-CoV 3CL protease, the “inhibitory activity on SARS-CoV 3CL proteases (in words)” value was “all have inhibitory activity; also recorded: excellent inhibitory activity”.
As for `Cc1cc2c(C(C)C)c(O)c(O)c(C=O)c2c(O)c1-c1c(C)cc2c(C(C)C)c(O)c(O)c(C=O)c2c1O` (single isomer, unassigned) [(+)- gossypol, (+)-gossypol], the inhibition percentage against SARS-CoV-2 3CL protease (setting [3]) is 2.45 and 3.18 and 3.87; against SARS-CoV-2 3CL protease (setting [4]), 5.69 and 7.88 and 9.54; on SARS-CoV-2 3CL protease (setting [5]), 9.43 and 11.87 and 14.87; against SARS-CoV-2 3CL protease (setting [6]), 18.73 and 20.90 and 22.44; on SARS-CoV-2 3CL protease (setting [7]), 25.21 and 28.43 and 29.13; at SARS-CoV-2 3CL protease (setting [8]), 36.55 and 40.32 and 38.72. Moreover, the inhibition percentage against SARS-CoV-2 3CL protease (setting [9]) is 58.34 and 61.83 and 55.88; at SARS-CoV 3CL protease (setting [3]), 3.96 and 4.54 and 5.87; against SARS-CoV 3CL protease (setting [4]) it was 11.58 and 9.88 and 13.43; at SARS-CoV 3CL protease (setting [5]) it was 19.12 and 16.53 and 20.66; against SARS-CoV 3CL protease (setting [6]), 22.9 and 26.42 and 30.76; against SARS-CoV 3CL protease (setting [7]) it was 28.14 and 30.43 and 38.33. In addition, the inhibition percentage on SARS-CoV 3CL protease (setting [8]) is 45.56 and 48.42 and 51.33; against SARS-CoV 3CL protease (setting [9]), 72.33 and 62.28 and 74.43. Further, the IC50 against SARS-CoV-2 3CL protease (setting [10]) stood at 75.2 ± 1.88 µM; on SARS-CoV 3CL protease (IC50, SARS-CoV 3CL protease), 51.6 ± 1.71 µM. Further, the “inhibitory activity on SARS-CoV-2 3CL proteases (in words)” value against SARS-CoV-2 3CL protease is given as “all have inhibitory activity”. For the same compound, the “inhibitory activity on SARS-CoV 3CL proteases (in words)” value at SARS-CoV 3CL protease is on record as “all have inhibitory activity”.
